Experimental findings from US11370769B2, “TRPC5 inhibitors and methods of using same” (BOARD OF REGENTS OF THE UNIVERSITY OF NEBRASKA, priority 2017, dated 2022) are described below.

A word on the IC50: it is the concentration at which inhibition is half-maximal.

The subject of experiment [1] is caAT1R podocytes. Nature of the experiment: Cell viability assay in podocytes expressing caAT1R. In kind it is cell-based, mouse. The settings on record: 30 μM ML204, 30 μM AC1903 or 50 μM NSC23677 for 36 hours. On the procedure:
Podocyte culture and viral transduction: Immortalized mouse podocytes were cultured as previously described (10, 11). Podocyte viral transduction was performed using lentivirus as previously described (10, 11). Briefly, lentivirus production was carried out in HEK293T cells at 60% confluence, and viral particles were collected two days after transfection and purified by centrifugation at 1,000 rcf for 5 min. Purified lentivirus was frozen at −80° C. until further use. Podocytes were transduced with lentivirus after 7 days of differentiation, and assays were performed 5 days after viral transduction.
For experiments in FIG. 4B/C, pCDNA3.1 AT1AR-Δ324 (rat AT1R NM_030985.4) containing HA tag (Plasmid #45635, Addgene) underwent site directed mutagenesis (Agilent) to generate the N111S substitution. For FIG. 4B, differentiated podocytes were transduced with the AT1A-N111S/Δ324 construct in six-well plates. Six days after viral transduction, cells were treated with either vehicle, 30 μM ML204, 30 μM AC1903 or 50 μM NSC23677 for 36 hours. Intracellular production of ROS was measured using a cell-permeable fluorescent dye, 5-(and-6)-chloromethyl-2′,7′-dichlorodihydrofluorescein diacetate, acetyl ester (CM-H2DCFDA, Molecular Probes). Cells were incubated with 5 μM CM-H2DCFDA at 37° C. for 45 min in Hanks' balanced salt solution (HBSS). Cells were then collected, resuspended in HBSS, stained with propidium iodide and the fluorescence intensity was assessed by flow cytometry using MACSQuant Analyzer (Miltenyi Biotec, Bergisch Gladbach, Germany). Living cells, which were PI negative, were selected by FACS gating and the fluorescence of CM-H2DCFDA was recorded on the FL-1 channel (525 nm). For FIG. 4C, differentiated podocytes were transduced with the AT1A-N111S/Δ324 construct in 96 well plates. Six days after transduction, the cells were treated with either vehicle, 30 μM ML204, 30 μM AC1903 or 50 μM NSC23677 for 36 hours. […]

For experiment [2], the target named is T1, TRPC5 (Homo sapiens, UniProt Q9UL62).
T1 construct: expressed in transfected cells; host or cells: HEK293
T1 sequence (Q9UL62 1-973): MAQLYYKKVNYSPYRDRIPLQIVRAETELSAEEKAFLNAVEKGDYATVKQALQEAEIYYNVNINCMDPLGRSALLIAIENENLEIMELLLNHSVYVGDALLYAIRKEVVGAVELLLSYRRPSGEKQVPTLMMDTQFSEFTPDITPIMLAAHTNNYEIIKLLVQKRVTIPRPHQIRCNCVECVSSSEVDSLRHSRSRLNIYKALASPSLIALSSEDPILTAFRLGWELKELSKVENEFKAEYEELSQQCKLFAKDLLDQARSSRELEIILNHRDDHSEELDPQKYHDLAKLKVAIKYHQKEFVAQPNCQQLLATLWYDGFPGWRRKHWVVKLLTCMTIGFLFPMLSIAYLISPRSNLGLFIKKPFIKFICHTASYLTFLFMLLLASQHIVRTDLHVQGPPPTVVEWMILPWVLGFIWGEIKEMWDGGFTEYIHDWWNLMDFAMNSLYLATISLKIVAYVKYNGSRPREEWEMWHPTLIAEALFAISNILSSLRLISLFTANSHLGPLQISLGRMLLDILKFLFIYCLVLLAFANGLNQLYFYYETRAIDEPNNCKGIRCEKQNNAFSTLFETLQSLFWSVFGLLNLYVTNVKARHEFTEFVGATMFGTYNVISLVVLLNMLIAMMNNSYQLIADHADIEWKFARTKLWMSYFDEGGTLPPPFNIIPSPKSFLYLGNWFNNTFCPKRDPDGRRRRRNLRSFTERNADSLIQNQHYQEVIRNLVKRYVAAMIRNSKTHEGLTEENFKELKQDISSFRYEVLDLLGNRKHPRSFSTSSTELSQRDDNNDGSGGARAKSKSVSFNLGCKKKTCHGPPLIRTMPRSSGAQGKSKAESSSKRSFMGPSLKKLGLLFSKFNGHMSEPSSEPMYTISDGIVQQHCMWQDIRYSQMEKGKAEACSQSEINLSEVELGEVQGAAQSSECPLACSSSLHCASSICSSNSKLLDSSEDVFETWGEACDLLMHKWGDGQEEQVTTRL
Nature of the experiment: HEK293 whole-cell patch clamp recording, TRPC5 inhibition assay. In kind it is cell-based. The settings on record: for IC50: dose response, whole cell patch clamp, HEK cells expressing TRPC5, Rilu (3 μM). On the procedure: TRPC4, TRPC5, and TRPC6 inhibition assay: HEK293 whole-cell recordings Whole-cell patch clamp recording was performed 16 h after transfection. The bath solution contained (in mM): 140 NaCl, 5 KCl, 10 HEPES, 2 MgCl2, 2 CaCl2, 10 glucose with pH7.4 adjusted with NaOH. The intracellular solution contained (in mM): 140 KCl, 5 EGTA, 10 HEPES, 2 MgCl2 with pH7.4 adjusted with KOH. The patch pipettes were made using a two-step-protocol (P-97, Sutter Instrument). The pipette resistance was maintained between 4 to 8 MΩ. Once the whole-cell configuration was achieved, cells were clamped at a holding potential of −60 mV, and given a 50 ms ramp stimulation from −100 mV to +100 mV in every 5 s. All currents were filtered at 2 KHz (Axopatch 200B amplifier, Axon Instruments, Union City, Calif.) and digitized at 10 KHz for whole-cell recordings using Axon pCLAMP 10.4. Data were then analyzed using Clampfit 10.4 (Molecular Devices).
HEK293 cell culture and transfection: Transfection of HEK293 cells was carried out using Plus reagent (Invitrogen) and Lipofectamine (Invitrogen) according to standard protocols. For heterologous expression of TRP channels in HEK293 cells, 1 μg of TRPC5-GFP, TRPC6-GFP or TRPC4-GFP plasmids were used to transfect HEK293 cells in a 3.5 cm petri dish where cells were allowed to grow to 80% confluence. Electrophysiology was carried out after 16 h incubation.

For the compound `c1ccc(Cn2c(NCc3ccco3)nc3ccccc32)cc1` [AC1903], the “podocyte cell death on caAT1R expression” value in experiment [1] is reported as “protected from cell death”. In experiment [2] (30 μM, HEK cells expressing TRPC5), the “block of riluzole-activated TRPC5 whole-cell current” value is on record as “blocked”. For the same compound, inhibition in experiment [2] was half-maximal at 14.7 µM (IC50).
As to `Cc1cc(N2CCCCC2)nc2ccccc12` [ML204, reference compound], the “podocyte cell death on caAT1R expression” value in experiment [1] is on record as “protected from cell death”. The midpoint of inhibition in experiment [2], the IC50, lay at 13.6 µM.
